Laboratory results taken from US20230278987A1, “Antimicrobial Compounds and Methods” (Curza Global, LLC, priority 2019, published 2023).
Values after ≈ are worked out from the molar mass of the structure shown. Counter-ions that a name gives are not always drawn. Like-named read-outs stand apart in the source and are kept apart here.

Tests used:
S.aureus (Sa) = experiment: Broth microdilution MIC against S.aureus (Sa); format: cell-based; conditions: Staphylococcus aureus
Summary of the method: (§1)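 CLSI broth microdilution with 8 two-fold compound dilutions in cation-adjusted Mueller-Hinton broth, optionally supplemented with 6.25 or 25 mM sodium bicarbonate or 0–50% heat-inactivated human serum. Inoculum 5 × 10^4 CFU/well from 0.5 McFarland suspensions, tested in triplicate.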

E.coli (Ec) = experiment: Broth microdilution MIC against E.coli (Ec); format: cell-based; conditions: Escherichia coli
Summary of the method: as §1

P.aeruginosa (Pa) = experiment: Broth microdilution MIC against P.aeruginosa (Pa); format: cell-based; conditions: Pseudomonas aeruginosa
Summary of the method: as §1

A.baumannii (Ab) = experiment: Broth microdilution MIC against A.baumannii (Ab); format: cell-based; conditions: Acinetobacter baumannii
Summary of the method: as §1

E.faecalis (Ef) = experiment: Broth microdilution MIC against E.faecalis (Ef); format: cell-based; conditions: Enterococcus faecalis
Summary of the method: as §1

[1] = system: E.coli S30 extract (bacterial protein synthesis); experiment: E.coli S30 extract: inhibition of bacterial protein synthesis (luciferase); format: biochemical; conditions: 37° C. for 1 hour
Summary of the method: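 E. coli S30 circular-DNA coupled transcription-translation of pBESTluc luciferase in presence of 2-fold serial compound dilutions (8 points). Incubated 1 h at 37 °C, stopped at 4 °C, then luminescence read. Percent inhibition versus no-inhibitor controls, with no-DNA background.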

[2] = biological target: Rabbit Reticulocyte Lysate (eukaryotic protein synthesis); experiment: Rabbit Reticulocyte Lysate: inhibition of eukaryotic protein synthesis (luciferase); format: biochemical; conditions: 30° C. for 90 minutes, read-out: retic. IC50
Summary of the method: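 Nuclease-treated rabbit reticulocyte lysate translating luciferase control RNA, incubated 90 min at 30° C with eight 2-fold compound dilutions. Luminescence measured after adding luciferase reagent; % inhibition relative to no-inhibitor wells, with no-RNA wells as background.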

[3] = CAMHB supplemented with sodium bicarbonate 6.25 mM, read-out: Sa + bicarb 6.25 (MIC)
[4] = CAMHB supplemented with sodium bicarbonate 6.25 mM, read-out: E. coli + bicarb 6.25 (MIC)
[5] = CAMHB supplemented with sodium bicarbonate 6.25 mM, read-out: Pa +bicarb 6.25 (MIC)
[6] = CAMHB supplemented with sodium bicarbonate 6.25 mM, read-out: Ab +bicarb 6.25 (MIC)
[7] = CAMHB supplemented with sodium bicarbonate 6.25 mM, read-out: Ef +bicarb 6.25 (MIC)
[8] = read-out: Sa + bicarb 6.25 (MIC)
[9] = read-out: E. coli + bicarb 6.25 (MIC)
[10] = read-out: Pa +bicarb 6.25 (MIC)
[11] = read-out: Ab +bicarb 6.25 (MIC)
[12] = read-out: Ef +bicarb 6.25 (MIC)

Row | Compound | MIC (S.aureus (Sa); [3]) | MIC (E.coli (Ec); [4]) | MIC (P.aeruginosa (Pa); [5]) | MIC (A.baumannii (Ab); [6]) | MIC (E.faecalis (Ef); [7]) | IC50 [1] | IC50 [2] | further results
1 | CC(C)(N)C(=O)N1CCN(C(=O)Nc2ccn(-c3ccc4c(c3)CC(N[C@H]3CC[C@H](N)C3)C4)c(=O)n2)CC1 (some centres unmarked) [Compound 36, Hydrochloride Salt] | 8 to 32 mg/L | < 8 mg/L | > 32 mg/L | > 32 mg/L | > 32 mg/L | < 0.5 µM | < 0.5 µM | –
2 | CC(C)(N)C(=O)N1CCN(C(=O)Nc2ccn(-c3ccc4c(c3)CC(NC[C@H]3C[C@H](N)C3)C4)c(=O)n2)CC1 (some centres unmarked) [Compound 37, Hydrochloride Salt] | 8 to 32 mg/L | < 8 mg/L | > 32 mg/L | > 32 mg/L | > 32 mg/L | < 0.5 µM | ≥ 1 µM | –
3 | CC(C)(N)C(=O)N1CCN(C(=O)Nc2ccn(-c3ccc4c(c3)CC(N[C@H]3CC[C@H](N)CC3)C4)c(=O)n2)CC1 (some centres unmarked) [Compound 38, Hydrochloride Salt] | 8 to 32 mg/L | < 8 mg/L | > 32 mg/L | > 32 mg/L | > 32 mg/L | < 0.5 µM | ≥ 1 µM | –
4 | CC(C)(N)C(=O)N1CCN(C(=O)Nc2ccn(-c3ccc4c(c3)CCC(N3CC(N)C3)C4)c(=O)n2)CC1 (centres unmarked) [Compound 39] | 8 to 32 mg/L | 8 to 32 mg/L | > 32 mg/L | > 32 mg/L | > 32 mg/L | 0.5 to 1 µM | ≥ 1 µM | –
5 | CC(C)(N)C(=O)N1CCN(C(=O)Nc2ccn(-c3ccc4c(c3)CCC(N3CC(CN)C3)C4)c(=O)n2)CC1 (centres unmarked) [Compound 40, Hydrochloride Salt] | < 8 mg/L | < 8 mg/L | > 32 mg/L | > 32 mg/L | 8 to 32 mg/L | < 0.5 µM | ≥ 1 µM | –
6 | CC(C)(N)C(=O)N1CCN(C(=O)Nc2ccn(-c3ccc4c(c3)CCC(N3CCC(CCN)CC3)C4)c(=O)n2)CC1 (centres unmarked) [Compound 42, 4-(2-Amino-2-methylpropanoyl)-N-(1-(6-(4-(2-aminoethyl)piperidin-1-yl)-5,6,7,8-tetrahydronaphthalen-2-yl)-2-oxo-1,2-dihydropyrimidin-4-yl)piperazine-1-carboxamide hydrochloride salt] | – | – | – | – | – | ≥ 1 µM | ≥ 1 µM | MIC (S.aureus (Sa); [8]): 8 to 32 mg/L; MIC (E.coli (Ec); [9]): < 8 mg/L; MIC (P.aeruginosa (Pa); [10]): > 32 mg/L; MIC (A.baumannii (Ab); [11]): > 32 mg/L; MIC (E.faecalis (Ef); [12]): > 32 mg/L
7 | CC(C)(N)C(=O)N1CCN(C(=O)Nc2ccn(-c3ccc4c(c3)CCC(N3CCCC(N)CC3)C4)c(=O)n2)CC1 (centres unmarked) [Compound 43] | < 8 mg/L | < 8 mg/L | > 32 mg/L | > 32 mg/L | > 32 mg/L | < 0.5 µM | ≥ 1 µM | MIC (S.aureus (Sa); CAMHB supplemented with sodium bicarbonate 25 mM, read-out: Sa + bicarb 25 (MIC)): < 8 mg/L; MIC (E.coli (Ec); CAMHB supplemented with sodium bicarbonate 25 mM, read-out: E.coli + bicarb 25 (MIC)): < 8 mg/L; MIC (P.aeruginosa (Pa); CAMHB supplemented with sodium bicarbonate 25 mM, read-out: Pa +bicarb 25 (MIC)): 8 to 32 mg/L (≈ 14.5 to 58.1 µM); MIC (A.baumannii (Ab); CAMHB supplemented with sodium bicarbonate 25 mM, read-out: Ab +bicarb 25 (MIC)): 8 to 32 mg/L (≈ 14.5 to 58.1 µM); MIC (E.faecalis (Ef); CAMHB supplemented with sodium bicarbonate 25 mM, read-out: Ef +bicarb 25 (MIC)): < 8 mg/L
8 | COC(=O)N[C@H]1CC[C@H](NC2CCc3cc(-n4ccc(NC(=O)N5CCN(C(=O)C(C)(C)N)CC5)nc4=O)ccc3C2)C1 (stereo partly drawn) [Compound 45, Methyl ((1S,3S)-3-((6-(4-(4-(2-amino-2-methylpropanoyl)piperazine-1-carboxamido)-2-oxopyrimidin-1(2H)-yl)-1,2,3,4-tetrahydronaphthalen-2-yl)amino)cyclopentyl)Carbamate Hydrochloride Salt] | – | – | – | – | – | ≥ 1 µM | ≥ 1 µM | MIC (S.aureus (Sa); [8]): > 32 mg/L; MIC (E.coli (Ec); [9]): > 32 mg/L; MIC (P.aeruginosa (Pa); [10]): > 32 mg/L; MIC (A.baumannii (Ab); [11]): > 32 mg/L; MIC (E.faecalis (Ef); [12]): > 32 mg/L
9 | CC(C)(N)C(=O)N1CCN(C(=O)Nc2ccn(-c3ccc4c(c3)CN([C@H]3CC[C@H](N)CC3)C4)c(=O)n2)CC1 [Compound 46, 4-(2-amino-2-methylpropanoyl)-N-(1-(2-((trans)-4-aminocyclohexyl)isoindolin-5-yl)-2-oxo-1,2-dihydropyrimidin-4-yl)piperazine-1-carboxamide hydrochloride salt] | – | – | – | – | – | < 0.5 µM | ≥ 1 µM | MIC (S.aureus (Sa); read-out: Sa + bicarb 25 (MIC)): < 8 mg/L; MIC (E.coli (Ec); read-out: E.coli + bicarb 25 (MIC)): < 8 mg/L; MIC (P.aeruginosa (Pa); read-out: Pa +bicarb 25 (MIC)): 8 to 32 mg/L; MIC (A.baumannii (Ab); read-out: Ab +bicarb 25 (MIC)): 8 to 32 mg/L; MIC (E.faecalis (Ef); read-out: Ef +bicarb 25 (MIC)): 8 to 32 mg/L
